Assays:
[1] = system: pSTAT5/GM-CSF; assay: pSTAT5/GM-CSF cellular assay (JAK2 selectivity); type: cell-based; conditions: for Selectivity fold (TYK2/JAK2): pSTAT5/GM-CSF IC50 over pSTAT4/IL-12 IC50
[2] = system: JAK2, TYK2/p-STAT4 (Tyr693) activated by IL-12 in NK-92 cell line; assay: IL-12-JAK2, TYK2/p-STAT4 (Tyr693) inhibition IC50 cellular assay; type: cell-based; conditions: for IC50: NK92, Cellular assay, read-out: pSTAT4/IL-12 IC50; for Selectivity fold (TYK2/JAK2): Cellular assay, pSTAT5/GM-CSF IC50 vs pSTAT4/IL-12 IC50
How it was run: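 NK-92 cells were starved overnight without IL-2 and preincubated 1 h at 37° C with compound (8 doses, 10000–0.61 nM, 4-fold, 0.2% DMSO). They were then stimulated with IL-12 (40 ng/ml final) for 30 min. Lysate p-STAT4 (Tyr693) was read by AlphaLISA SureFire; IC50 from four-parameter logistic fit.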

[3] = target: T1, TYK2-JH2 (aa 575-869, in-house) protein (Homo sapiens, UniProt P29597); assay: TYK2-JH2 biochemical assay (HTRF probe displacement); type: binding; conditions: Biochemical assay; read-out: TYK2-JH2 IC50
T1 construct: TYK2-JH2 (aa 575-869, in-house) protein; made in house
T1 sequence (P29597 575-869): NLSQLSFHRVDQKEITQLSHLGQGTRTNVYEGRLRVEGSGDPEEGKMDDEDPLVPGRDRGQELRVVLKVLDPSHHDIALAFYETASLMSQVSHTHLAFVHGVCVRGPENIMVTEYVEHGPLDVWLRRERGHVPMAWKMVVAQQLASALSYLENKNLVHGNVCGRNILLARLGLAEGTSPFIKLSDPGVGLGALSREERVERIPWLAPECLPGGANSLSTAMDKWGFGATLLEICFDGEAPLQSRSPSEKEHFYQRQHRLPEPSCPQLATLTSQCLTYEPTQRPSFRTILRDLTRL
How it was run: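 Recombinant TYK2-JH2 (0.2 nM) was pre-incubated 0.5 h at room temperature with compounds (10 doses, 5-fold dilution; 500× DMSO stocks from 500 uM) in 20 mM HEPES pH 7.5, 10 mM MgCl2, 0.005% BSA, 2 mM DTT, 0.015% Brij-35. Probe displacement was read by HTRF (ex337, em620/665 nm); IC50 from four-parameter logistic fit.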

| SMILES | IC50 [1] [nM] | Selectivity fold (TYK2/JAK2) [1] [fold] | IC50 [2] [nM] | IC50 [3] [nM] | Selectivity fold (TYK2/JAK2) [2] [fold] |
| --- | --- | --- | --- | --- | --- |
| COc1cc(S(C)(=O)=O)nc(Nc2cc(NC(C)=O)ncc2-c2ccc3c(n2)OCC(C)(C)O3)c1OC [Example Q26, N-(4-((3,4-dimethoxy-6-(methylsulfonyl)pyridin-2-yl)amino)-5-(2,2-dimethyl-2,3-dihydro-[1,4]dioxino[2,3-b]pyridin-6-yl)pyridin-2-yl)acetamide] | 700 | 457 | 1.53 | 0.032 | – |
| CC(=O)Nc1cc(Nc2cc(C(F)F)cc(S(C)(=O)=O)n2)c(-c2ccn(C)n2)cn1 [Example J42, N-(4-((4-(difluoromethyl)-6-(methylsulfonyl)pyridin-2-yl)amino)-5-(1-methyl-1H-pyrazol-3-yl)pyridin-2-yl)acetamide] | > 10000 | >12562 | 0.796 | 0.05 | – |
| CC(=O)Nc1cc(Nc2cc(OC3CCC3)cc(S(C)(=O)=O)n2)c(-c2ccc(C(C)(C)O)cn2)cn1 [Example H31, N-(4′-((4-cyclobutoxy-6-(methylsulfonyl)pyridin-2-yl)amino)-5-(2-hydroxypropan-2-yl)-[2,3′-bipyridin]-6′-yl)acetamide] | > 10000 | – | 0.935 | 0.023 | >10695 |
| CC(=O)Nc1cc(Nc2cccc(S(C)(=O)=O)n2)c(-c2ccn(C(C)C)n2)cn1 [Example M22, N-(5-(1-isopropyl-1H-pyrazol-3-yl)-4-((6-(methylsulfonyl)pyridin-2-yl)amino)pyridin-2-yl)acetamide] | 532 | 1683 | 0.316 | 0.027 | – |
| CC(=O)Nc1cc(Nc2cccc(S(C)(=O)=O)n2)c(-c2ccc(C(C)(C)O)cn2)cn1 [Example H5, N-(5-(2-hydroxypropan-2-yl)-4′-((6-(methylsulfonyl)pyridin-2-yl)amino)-[2,3′-bipyridin]-6′-yl)acetamide] | 1680 | – | 0.323 | 0.015 | 5185 |
| CC(=O)Nc1cc(Nc2cc(OCC(C)O)cc(S(C)(=O)=O)n2)c(-c2ccc(C(C)(C)O)cn2)cn1 (centres unmarked) [Example H26, N-(5-(2-hydroxypropan-2-yl)-4′-((4-(2-hydroxypropoxy)-6-(methylsulfonyl)pyridin-2-yl)amino)-[2,3′-bipyridin]-6′-yl)acetamide] | > 10000 | – | 11.7 | 0.039 | >854 |
| CC(=O)Nc1cc(Nc2cccc(S(C)(=O)=O)c2)c(-c2ccn(C3CCOC3)n2)cn1 (centres unmarked) [Example M30, N-(4-((3-(methylsulfonyl)phenyl)amino)-5-(1-(tetrahydrofuran-3-yl)-1H-pyrazol-3-yl)pyridin-2-yl)acetamide] | > 10000 | >892 | 11.2 | 0.049 | – |
| COCCOc1cc(Nc2cc(NC(C)=O)ncc2-c2ccc(C(F)(F)F)cn2)nc(S(C)(=O)=O)c1 [Example F11, N-(4′-((4-(2-methoxyethoxy)-6-(methylsulfonyl)pyridin-2-yl)amino)-5-(trifluoromethyl)-[2,3′-bipyridin]-6′-yl)acetamidecarboxamide] | > 10000 | – | 0.705 | 0.037 | >14184 |
| CC(=O)Nc1cc(Nc2cc(OCCO)cc(S(C)(=O)=O)n2)c(-c2ccc(C(F)(F)F)cn2)cn1 [Example F12, N-(4′-((4-(2-hydroxyethoxy)-6-(methylsulfonyl)pyridin-2-yl)amino)-5-(trifluoromethyl)-[2,3′-bipyridin]-6′-yl)acetamide] | > 10000 | – | 1.35 | 0.034 | >7407 |
| CC(=O)Nc1cc(Nc2cc(C3CC3)cc(S(C)(=O)=O)n2)c(-c2ccc(F)cn2)cn1 [Example F25, N-(4′-((4-cyclopropyl-6-(methylsulfonyl)pyridin-2-yl)amino)-5-fluoro-[2,3′-bipyridin]-6′-yl)acetamide] | > 10000 | – | 0.446 | 0.029 | >22421 |
| CC(=O)Nc1cc(Nc2cccc(S(N)(=O)=O)n2)c(-c2ccccn2)cn1 [Example B4, N-(4′-((6-sulfamoylpyridin-2-yl)amino)-[2,3′-bipyridin]-6′-yl)acetamide] | > 10000 | – | 2.53 | 0.019 | >3952 |
| COCc1cc(Nc2cc(NC(C)=O)ncc2-c2ccn(C)n2)cc(S(C)(=O)=O)c1 [Example J34, N-(4-((3-(methoxymethyl)-5-(methylsulfonyl)phenyl)amino)-5-(1-methyl-1H-pyrazol-3-yl)pyridin-2-yl)acetamide] | > 10000 | >1031 | 9.69 | 0.067 | – |
| COc1cc(Nc2cc(NC(C)=O)ncc2-c2cc(C)n(C)n2)nc(S(C)(=O)=O)c1 [Example N4, N-(5-(1,5-dimethyl-1H-pyrazol-3-yl)-4-((4-methoxy-6-(methylsulfonyl)pyridin- -2-yl)amino)pyridin-2-yl)acetamide] | > 10000 | >72992 | 0.137 | 0.029 | – |
| CC(=O)Nc1cc(Nc2cc(OC(C)C)cc(S(C)(=O)=O)n2)c(-n2cccn2)cn1 [Example A12, N-(4-((4-isopropoxy-6-(methylsulfonyl)pyridin-2-yl)amino)-5-(1H-pyrazol-1-yl)pyridin-2-yl)acetamide] | > 10000 | – | 16.8 | 0.037 | >595 |
| CCOc1cc(Nc2cc(NC(C)=O)ncc2-c2ccc(F)cn2)nc(S(C)(=O)=O)c1 [Example F19, N-(4′-((4-ethoxy-6-(methylsulfonyl)pyridin-2-yl)amino)-5-fluoro-[2,3′-bipyridin]-6′-yl)acetamide] | > 10000 | – | 3.06 | 0.036 | >3267 |
| CC(=O)Nc1cc(Nc2cccc(S(C)(=O)=O)n2)c(-c2ccc(N3CCOC(C)(C)C3)cn2)cn1 [Example B12, N-(5-(2,2-dimethylmorpholino)-4′-((6-(methylsulfonyl)pyridin-2-yl)amino)-[2,3′-bipyridin]-6′-yl)acetamide] | 610 | – | 0.74 | 0.034 | 824 |
| COCCOc1cc(Nc2cc(NC(C)=O)ncc2-c2ccn(C)n2)cc(S(C)(=O)=O)c1 [Example J35, N-(4-((3-(2-methoxyethoxy)-5-(methylsulfonyl)phenyl)amino)-5-(1-methyl-1H-pyrazol-3-yl)pyridin-2-yl)acetamide] | > 10000 | >1230 | 8.13 | 0.036 | – |
| COc1ccc(-c2cnc(NC(C)=O)cc2Nc2cc(OC(C)C)cc(S(C)(=O)=O)n2)nn1 [Example A26, N-(4-((4-isopropoxy-6-(methylsulfonyl)pyridin-2-yl)amino)-5-(6-methoxypyridazin-3-yl)pyridin-2-yl)acetamide] | > 10000 | – | 0.405 | 0.032 | >24691 |
| COCCOc1cc(Nc2cc(NC(C)=O)ncc2-c2ccn(C)n2)nc(S(C)(=O)=O)c1 [Example J12, N-(4-((4-(2-methoxyethoxy)-6-(methylsulfonyl)pyridin-2-yl)amino)-5-(1-methyl-1H-pyrazol-3-yl)pyridin-2-yl)acetamide] | > 10000 | >11806 | 0.847 | 0.017 | – |
| CC(=O)Nc1cc(Nc2cc(Cl)cc(S(C)(=O)=O)n2)c(-c2ccn(C)n2)cn1 [Example J40, N-(4-((4-chloro-6-(methylsulfonyl)pyridin-2-yl)amino)-5-(1-methyl-1H-pyrazol-3-yl)pyridin-2-yl)acetamide] | > 10000 | >30674 | 0.326 | 0.029 | – |
| COCCOc1cc(Nc2cc(NC(C)=O)ncc2-c2cc(C)n(C)n2)nc(S(C)(=O)=O)c1 [Example N5, N-(5-(1,5-dimethyl-1H-pyrazol-3-yl)-4-((4-(2-methoxyethoxy)-6-(methylsulfonyl)pyridin-2-yl)amino)pyridin-2-yl)acetamide] | > 10000 | >47169 | 0.212 | 0.039 | – |
| CC(=O)Nc1cc(Nc2cc(C#N)cc(S(C)(=O)=O)n2)c(-c2ccc(C(C)(C)O)cn2)cn1 [Example H14, N-(4′-((4-cyano-6-(methylsulfonyl)pyridin-2-yl)amino)-5-(2-hydroxypropan-2-yl)-[2,3′-bipyridin]-6′-yl)acetamide] | > 10000 | – | 0.727 | 0.034 | >13755 |
| CC(=O)Nc1cc(Nc2cc(C)cc(S(C)(=O)=O)n2)c(-c2ccc(N3C[C@@H](C)O[C@@H](C)C3)cn2)cn1 [Example C1, N-(5-(cis-2,6-dimethylmorpholino)-4′-((4-methyl-6-(methylsulfonyl)pyridin-2-yl)amino)-[2,3′-bipyridin]-6′-yl)acetamide] | 563 | – | 0.881 | 0.027 | 639 |

Reference: patent US20240043435A1, “TYK-2 INHIBITOR” (BEIGENE, LTD., priority 2020, published 2024)
